System: patients with advanced solid tumors
Experiment: Safety: treatment-emergent and senaparib-related adverse events graded per NCI CTCAE v4.03
Type: in vivo
Protocol: This phase I, open-label, multicenter, dose-escalation, and dose-expansion study was conducted at three national clinical institutions in China. […] At baseline, all patients enrolled in the dose-escalation phase had to have at least one evaluable lesion, and those in the dose-expansion period had to have at least one measurable lesion, according to Response Evaluation Criteria in Solid Tumors version 1.1 (RECIST v1.1).[16] Entry to the dose-expansion cohort required the presence of a BRCA mutation, with the exception of patients with ovarian carcinoma, fallopian tube carcinoma, and primary peritoneal carcinoma. Full study eligibility criteria are provided in Supplementary Table S1.
Dose escalation was conducted using a modified Fibonacci 3 + 3 method (Supplementary Fig. S1).[17] Patients were administered oral senaparib from a planned starting dose of 2 mg once daily (QD), with preliminary dose escalation to 120 mg via nine dose groups, in order of their entry into the study. At a given dose level, each patient received a single dose of senaparib followed by a 7-day washout period. They then entered a continuous dosing period to confirm the safety and PK profile, in which they received senaparib QD from day 1 to day 21 of each 3-week cycle. Progression to the next higher dose required approval from the Data Safety Monitoring Committee (DSMC) upon review of the safety and PK data of the previous dose. A 50-mg twice-daily (BID) dosing group was added (planned enrollment, n = 6 patients) based on a DSMC review of the safety, PK, and efficacy analysis of the completed QD dose groups in the phase I clinical trial of senaparib dose escalation in Australia (NCT03507543), which commenced prior to the start of this trial.
The dose-expansion period included 3 populations: dose groups in which at least one patient achieved complete response (CR) or partial response (PR) per RECIST v1.1[16] and 1 dose group higher (evaluated for safety), as well as the dose group at the maximum tolerated dose (MTD)/recommended phase II dose (RP2D). Each of these groups included those patients in the respective dose-escalation group plus a planned additional 10 patients (approximately 20 patients in the MTD/RP2D group) with BRCA^mut+ solid tumors (ovarian, breast, or prostate cancer were preferred, and ovarian cancer could be BRCA wild type). Patients received senaparib monotherapy orally QD or BID (50-mg dose only) over each 3-week cycle until disease progression or unacceptable toxicity.
DLTs were predefined toxicities (Supplementary Table S2) recorded over the 7 days following the single-dose administration of senaparib and during the first treatment cycle (day 1-day 21) for each dose group in the dose-escalation period only. The MTD was defined as the maximum dose at which ≤1/6 patients experienced a DLT. Senaparib PK parameters were derived from blood samples collected from patients after the single administration, and at regular intervals during the first cycle of the dose-escalation and dose-expansion periods. Plasma concentrations of senaparib were determined using high-performance liquid chromatography-tandem mass spectrometry. Tumor response was assessed every 6 weeks per RECIST v1.1,[16] recording objective response rate (ORR), disease control rate (DCR), duration of response (DOR), and progression-free survival (PFS) by dose level for all patients and for those harboring BRCA^mut+ tumors.

SMILES: O=C(c1cc(Cn2c(=O)[nH]c(=O)c3c(F)cccc32)ccc1F)N1CCN(c2ncccn2)CC1 [Senaparib]
- Blood creatinine increased TRAE, Gr≥3 (10 mg QD n = 3): 0 n (%)
- Hypokalemia TRAE, All (10 mg QD n = 3): 0 n (%)
- Hypokalemia TRAE, Gr≥3 (10 mg QD n = 3): 0 n (%)
- Nausea TRAE, All (10 mg QD n = 3): 0 n (%)
- Nausea TRAE, Gr≥3 (10 mg QD n = 3): 0 n (%)
- Neutrophil count decreased TRAE, All (10 mg QD n = 3): 0 n (%)
- Neutrophil count decreased TRAE, Gr≥3 (10 mg QD n = 3): 0 n (%)
- Platelet count decreased TRAE, All (10 mg QD n = 3): 0 n (%)
- Platelet count decreased TRAE, Gr≥3 (10 mg QD n = 3): 0 n (%)
- SAEs, events (10 mg QD n = 3): 0 n ev
- SAEs, patients (10 mg QD n = 3): 0 n (%)
- TEAE Grade ≥3, events (10 mg QD n = 3): 0 n ev
- TEAE Grade ≥3, patients (10 mg QD n = 3): 0 n (%)
- TEAEs leading to death, events (10 mg QD n = 3): 0 n ev
- TEAEs leading to death, patients (10 mg QD n = 3): 0 n (%)
- TEAEs leading to dose discontinuation, events (10 mg QD n = 3): 0 n ev
- TEAEs leading to dose discontinuation, patients (10 mg QD n = 3): 0 n (%)
- TEAEs leading to dose interruption, events (10 mg QD n = 3): 0 n ev
- TEAEs leading to dose interruption, patients (10 mg QD n = 3): 0 n (%)
- TEAEs leading to dose reduction, events (10 mg QD n = 3): 0 n ev
- TEAEs leading to dose reduction, patients (10 mg QD n = 3): 0 n (%)
- TRAEs Grade ≥3, events (10 mg QD n = 3): 0 n ev
- TRAEs Grade ≥3, patients (10 mg QD n = 3): 0 n (%)
- TRAEs, patients (10 mg QD n = 3): 3 (100) n (%)
- Vomiting TRAE, All (10 mg QD n = 3): 0 n (%)
- Vomiting TRAE, Gr≥3 (10 mg QD n = 3): 0 n (%)
- WBC decreased TRAE, All (10 mg QD n = 3): 1 (33.3) n (%)
- WBC decreased TRAE, Gr≥3 (10 mg QD n = 3): 0 n (%)
- ALT increased TRAE, All (20 mg QD n = 5): 0 n (%)
- ALT increased TRAE, Gr≥3 (20 mg QD n = 5): 0 n (%)
- AST increased TRAE, All (20 mg QD n = 5): 0 n (%)
- AST increased TRAE, Gr≥3 (20 mg QD n = 5): 0 n (%)
- Anemia TRAE, All (20 mg QD n = 5): 1 (20.0) n (%)
- Anemia TRAE, Gr≥3 (20 mg QD n = 5): 1 (20.0) n (%)
- Any TEAE, All (20 mg QD n = 5): 5 (100) n (%)
- Any TEAE, Gr≥3 (20 mg QD n = 5): 2 (40.0) n (%)
- Any TEAE, events (20 mg QD n = 5): 30 n ev
- Any TEAE, patients (20 mg QD n = 5): 5 (100) n (%)
- Any TRAE, All (20 mg QD n = 5): 3 (60.0) n (%)
- Any TRAE, Gr≥3 (20 mg QD n = 5): 1 (20.0) n (%)
- Appetite decreased TRAE, All (20 mg QD n = 5): 0 n (%)
- Appetite decreased TRAE, Gr≥3 (20 mg QD n = 5): 0 n (%)
- Asthenia TRAE, All (20 mg QD n = 5): 1 (20.0) n (%)
- Asthenia TRAE, Gr≥3 (20 mg QD n = 5): 0 n (%)
- Blood bilirubin increased TRAE, All (20 mg QD n = 5): 0 n (%)
- Blood bilirubin increased TRAE, Gr≥3 (20 mg QD n = 5): 0 n (%)
- Blood creatinine increased TRAE, All (20 mg QD n = 5): 1 (20.0) n (%)
- Blood creatinine increased TRAE, Gr≥3 (20 mg QD n = 5): 0 n (%)
- Hypokalemia TRAE, All (20 mg QD n = 5): 1 (20.0) n (%)
- Hypokalemia TRAE, Gr≥3 (20 mg QD n = 5): 0 n (%)
- Nausea TRAE, All (20 mg QD n = 5): 1 (20.0) n (%)
- Nausea TRAE, Gr≥3 (20 mg QD n = 5): 0 n (%)
- Neutrophil count decreased TRAE, All (20 mg QD n = 5): 0 n (%)
- Neutrophil count decreased TRAE, Gr≥3 (20 mg QD n = 5): 0 n (%)
- Platelet count decreased TRAE, All (20 mg QD n = 5): 1 (20.0) n (%)
- Platelet count decreased TRAE, Gr≥3 (20 mg QD n = 5): 0 n (%)
- SAEs, events (20 mg QD n = 5): 1 n ev
- SAEs, patients (20 mg QD n = 5): 1 (20.0) n (%)
- TEAE Grade ≥3, events (20 mg QD n = 5): 3 n ev
- TEAE Grade ≥3, patients (20 mg QD n = 5): 2 (40.0) n (%)
- TEAEs leading to death, events (20 mg QD n = 5): 1 n ev
- TEAEs leading to death, patients (20 mg QD n = 5): 1 (20.0) n (%)
- TEAEs leading to dose discontinuation, events (20 mg QD n = 5): 2 n ev
- TEAEs leading to dose discontinuation, patients (20 mg QD n = 5): 2 (40.0) n (%)
- TEAEs leading to dose interruption, events (20 mg QD n = 5): 1 n ev
- TEAEs leading to dose interruption, patients (20 mg QD n = 5): 1 (20.0) n (%)
- TEAEs leading to dose reduction, events (20 mg QD n = 5): 0 n ev
- TEAEs leading to dose reduction, patients (20 mg QD n = 5): 0 n (%)
- TRAEs Grade ≥3, events (20 mg QD n = 5): 1 n ev
- TRAEs Grade ≥3, patients (20 mg QD n = 5): 1 (20.0) n (%)
- TRAEs, events (20 mg QD n = 5): 15 n ev
- TRAEs, patients (20 mg QD n = 5): 3 (60.0) n (%)
- Vomiting TRAE, All (20 mg QD n = 5): 0 n (%)
- Vomiting TRAE, Gr≥3 (20 mg QD n = 5): 0 n (%)
- WBC decreased TRAE, All (20 mg QD n = 5): 1 (20.0) n (%)
- WBC decreased TRAE, Gr≥3 (20 mg QD n = 5): 0 n (%)
- ALT increased TRAE, All (40 mg QD n = 3): 0 n (%)
- ALT increased TRAE, Gr≥3 (40 mg QD n = 3): 0 n (%)
- AST increased TRAE, All (40 mg QD n = 3): 0 n (%)
- AST increased TRAE, Gr≥3 (40 mg QD n = 3): 0 n (%)
- Anemia TRAE, All (40 mg QD n = 3): 1 (33.3) n (%)
- Anemia TRAE, Gr≥3 (40 mg QD n = 3): 0 n (%)
- Any TEAE, All (40 mg QD n = 3): 3 (100) n (%)
- Any TEAE, Gr≥3 (40 mg QD n = 3): 0 n (%)
- Any TEAE, events (40 mg QD n = 3): 7 n ev
- Any TEAE, patients (40 mg QD n = 3): 3 (100) n (%)
- Any TRAE, All (40 mg QD n = 3): 3 (100) n (%)
- Any TRAE, Gr≥3 (40 mg QD n = 3): 0 n (%)
- Appetite decreased TRAE, All (40 mg QD n = 3): 0 n (%)
- Appetite decreased TRAE, Gr≥3 (40 mg QD n = 3): 0 n (%)
- Asthenia TRAE, All (40 mg QD n = 3): 1 (33.3) n (%)
- Asthenia TRAE, Gr≥3 (40 mg QD n = 3): 0 n (%)
- Blood bilirubin increased TRAE, All (40 mg QD n = 3): 0 n (%)
- Blood bilirubin increased TRAE, Gr≥3 (40 mg QD n = 3): 0 n (%)
- Blood creatinine increased TRAE, All (40 mg QD n = 3): 1 (33.3) n (%)
- Blood creatinine increased TRAE, Gr≥3 (40 mg QD n = 3): 0 n (%)
- Hypokalemia TRAE, All (40 mg QD n = 3): 0 n (%)
- Hypokalemia TRAE, Gr≥3 (40 mg QD n = 3): 0 n (%)
- Nausea TRAE, All (40 mg QD n = 3): 0 n (%)
- Nausea TRAE, Gr≥3 (40 mg QD n = 3): 0 n (%)
- Neutrophil count decreased TRAE, All (40 mg QD n = 3): 0 n (%)
- Neutrophil count decreased TRAE, Gr≥3 (40 mg QD n = 3): 0 n (%)
- Platelet count decreased TRAE, All (40 mg QD n = 3): 0 n (%)
- Platelet count decreased TRAE, Gr≥3 (40 mg QD n = 3): 0 n (%)
- SAEs, events (40 mg QD n = 3): 0 n ev
- SAEs, patients (40 mg QD n = 3): 0 n (%)
- TEAE Grade ≥3, events (40 mg QD n = 3): 0 n ev
- TEAE Grade ≥3, patients (40 mg QD n = 3): 0 n (%)
- TEAEs leading to death, events (40 mg QD n = 3): 0 n ev
- TEAEs leading to death, patients (40 mg QD n = 3): 0 n (%)
- TEAEs leading to dose discontinuation, events (40 mg QD n = 3): 0 n ev
- TEAEs leading to dose discontinuation, patients (40 mg QD n = 3): 0 n (%)
- TEAEs leading to dose interruption, events (40 mg QD n = 3): 0 n ev
- TEAEs leading to dose interruption, patients (40 mg QD n = 3): 0 n (%)
- TEAEs leading to dose reduction, events (40 mg QD n = 3): 0 n ev
- TEAEs leading to dose reduction, patients (40 mg QD n = 3): 0 n (%)
